In US6770442B2, “Methods for modulating the solubility of synthetic polymers” (Boston Probes, Inc., priority 1998, dated 2004):

Tests used:
[1] = Solubility of labeled PNA oligomer in aqueous buffer
[2] = UV Tm analysis of unimolecular PNA hairpins (9 bp stem duplex); assay type: physicochemical; details: for cooperativity of sigmoidal melting transition (normalized absorbance vs. temperature): each probe at [1], FIG. 11
Method: The five Tm Samples of a dilution series of a particular unimolecular probe to be analyzed were simultaneously examined using a Cary 100 Bio UV-Visible Spectrophotometer (Varian Instruments) equipped with a 6×6 thermostatable multicell block running Win UV Bio application software package. To a 10×10 UV cell (Starna Cells, P/N 21-Q-10) was added a 7.2 mm stir bar and the 2.5 mL of each sample of the dilution series. The stirring accessory was used during all analysis. All samples were thermally denatured and reannealed prior to data collection by having the instrument rapidly ramp the temperature to a point above the melting temperature and then holding that temperature for 5-10 minutes before returning to the starting temperature. The temperature range over which data was collected was varied in response to the expected Tm which was roughly determined during the premelt and prereannealing step. Regardless of the temperature range, the temperature ramp rate for both melting “M” and reannealing “R” was always 0.5°C./min. The absorbance (260 nm, averaged over a 3 second collection) was plotted vs. the temperature of the multicell block.
After the Tm analysis was performed in Tm Buffer, to each cell was added 0.5 μL of 5M MgCl2 to thereby prepare a sample containing 1 mM MgCl2. The dilution effect was considered to be negligible. The Tm analysis was then performed again to determine whether the presence of MgCl2 had any; effect on the Tm of the unimolecular probe.
After the Tm analysis was performed in Tm Buffer and 1 mM MgCl2, to each cell was added 42 μL of saturated NaCl (approximately 6.11 M/L). The dilution effect was again considered to be negligible. The Tm analysis was then performed again to determine whether the presence of approximately 100 mM NaCl had any effect on the Tm of the unimolecular probe.

[3] = [1] approx. 7.5 μM, Buf, Mg & Na: Tm Buffer, 1 mM MgCl2 and 100 mM NaCl
[4] = [1] approx. 7.5 μM, Buf, Mg: Tm Buffer and 1 mM MgCl2
[5] = [2] approx. 3.75 μM, Buf, Mg & Na: Tm Buffer, 1 mM MgCl2 and 100 mM NaCl
[6] = [2] approx. 3.75 μM, Buf, Mg: Tm Buffer and 1 mM MgCl2
[7] = [2] approx. 3.75 μM, Buf: Tm Buffer
[8] = [3] approx. 1.87 μM, Buf, Mg & Na: Tm Buffer, 1 mM MgCl2 and 100 mM NaCl
[9] = [3] approx. 1.87 μM, Buf, Mg: Tm Buffer and 1 mM MgCl2
[10] = [3] approx. 1.87 μM, Buf: Tm Buffer
[11] = [4] approx. 0.94 μM, Buf, Mg & Na: Tm Buffer, 1 mM MgCl2 and 100 mM NaCl
[12] = [4] approx. 0.94 μM, Buf, Mg: Tm Buffer and 1 mM MgCl2
[13] = [4] approx. 0.94 μM, Buf: Tm Buffer
[14] = [5] approx. 0.468 μM, Buf, Mg & Na: Tm Buffer, 1 mM MgCl2 and 100 mM NaCl
[15] = [5] approx. 0.468 μM, Buf, Mg: Tm Buffer and 1 mM MgCl2
[16] = [5] approx. 0.468 μM, Buf: Tm Buffer

Row | Substance | Tm, melting M [2, 3] [°C] | Tm, reannealing R [2, 3] [°C] | Tm, melting M [2, 4] [°C] | Tm, reannealing R [2, 4] [°C] | Tm, melting M [2, 5] [°C] | Tm, melting M [2, 6] [°C] | Tm, reannealing R [2, 6] [°C] | Tm, melting M [2, 7] [°C] | Tm, reannealing R [2, 7] [°C] | Tm, melting M [2, 8] [°C] | Tm, melting M [2, 9] [°C] | Tm, reannealing R [2, 9] [°C] | Tm, melting M [2, 10] [°C] | Tm, reannealing R [2, 10] [°C] | Tm, melting M [2, 11] [°C] | Tm, reannealing R [2, 11] [°C] | Tm, melting M [2, 12] [°C] | Tm, melting M [2, 13] [°C] | Tm, reannealing R [2, 13] [°C] | Tm, melting M [2, 14] [°C] | also measured
1 | Flu-OEE-ATA-TAT-TGG-CTG-ATC-CAA-TAT-AT-EE-K(dabcyl)-NH2 [P4] | 82.6 | 81.8 | 81.6 | 81.0 | 82.6 | 81.6 | 81.5 | 81.6 | 81.4 | 82.6 | 82.0 | 81.5 | 82.1 | 81.5 | 82.5 | 82.5 | 82.0 | 82.0 | 81.5 | 83.0 | concentration up to which completely soluble [1]: ≥ 7.5 μM/L; Tm, reannealing R [2, 5]: 82.4 °C; Tm, reannealing R [2, 8]: 82.5 °C; Tm, reannealing R [2, 12]: 81.1 °C; Tm, reannealing R [2, 14]: 82.1 °C; Tm, melting M [2, 15]: 82.0 °C; Tm, reannealing R [2, 15]: 81.6 °C; Tm, melting M [2, 16]: 81.5 °C; Tm, reannealing R [2, 16]: 81.1 °C
2 | H-ATA-TAT-TGG-CTG-ATC-CAA-TAT-AT-KK-NH2 [PNAD, reference compound] | 80.6 | 80.4 | 80.6 | 80.3 | 81.5 | 81.1 | 80.4 | 81.1 | 81.0 | 81.0 | 81.1 | 80.4 | 82.0 | 81.0 | 81.5 | 80.5 | 80.5 | 81.5 | 81.5 | 82.1 | Tm, reannealing R [2, 8]: 81.4 °C; Tm, reannealing R [2, 12]: 81.0 °C; Tm, reannealing R [2, 14]: 80.6 °C; Tm, melting M [2, 15]: 80.5 °C; Tm, reannealing R [2, 15]: 80.5 °C; Tm, melting M [2, 16]: 81.5 °C; Tm, reannealing R [2, 16]: 81.1 °C; cooperativity of sigmoidal melting transition (normalized absorbance vs. temperature) [2]: least cooperative sigmoidal transition
3 | H-OEE-ATA-TAT-TGG-CTG-ATC-CAA-TAT-AT-EEK-NH2 [P4N] | 82.1 | 82.3 | 81.6 | 81.3 | 82.1 | 81.6 | 81.3 | 82.1 | 81.5 | 82.5 | 82.1 | 81.4 | 82.1 | 81.5 | 82.0 | 82.0 | 82.0 | 82.5 | 81.1 | 84.0 | Tm, reannealing R [2, 5]: 82.3 °C; Tm, reannealing R [2, 14]: 81.6 °C; Tm, melting M [2, 15]: 82.0 °C; Tm, reannealing R [2, 15]: 81.1 °C; Tm, melting M [2, 16]: 82.0 °C; Tm, reannealing R [2, 16]: 80.1 °C; cooperativity of sigmoidal melting transition (normalized absorbance vs. temperature) [2]: only a slightly less cooperative a transition as compared with probe P3N
4 | H-OEE-ATA-TAT-TGG-OO-CCA-ATA-TAT-EEK-NH2 [P3N] | 83.1 | 82.9 | 83.1 | 82.4 | 83.1 | 83.1 | 81.9 | 82.5 | 82.4 | 83.5 | 83.0 | 82.5 | 83.0 | 82.4 | 83.5 | 83.0 | 83.0 | 83.0 | 82.5 | 83.5 | Tm, reannealing R [2, 5]: 81.4 °C; Tm, reannealing R [2, 8]: 82.9 °C; Tm, reannealing R [2, 12]: 83.1 °C; Tm, reannealing R [2, 14]: 83.1 °C; Tm, melting M [2, 15]: 83.0 °C; Tm, reannealing R [2, 15]: 82.6 °C; Tm, melting M [2, 16]: 83.0 °C; Tm, reannealing R [2, 16]: 82.6 °C; cooperativity of sigmoidal melting transition (normalized absorbance vs. temperature) [2]: most cooperative sigmoidal transition
